In paper PMC12396409, “Screening and hit evaluation of a microbial metabolite library against the pathogenic Plasmodium falciparum and Toxoplasma gondii parasites” (International Journal for Parasitology: Drugs and Drug …, 2025):
Counter-ions that a name gives are not always drawn. Like-named read-outs stand apart in the source and are kept apart here.

Columns and labels:
[1] = system: P. falciparum 3D7 parasites; test: P. falciparum growth inhibition assay, 1-cycle (72 h treatment), SYBR DNA staining (library screen at 2 μg/mL and dose-response); format: cell-based, Plasmodium falciparum
[2] = system: P. falciparum 3D7 parasites; test: P. falciparum growth inhibition assay, 2-cycle (120 h treatment), delayed-death screen and dose-response; format: cell-based, Plasmodium falciparum
[3] = system: T. gondii RH strain (RH-Tub-eYFP) tachyzoites; test: microbe, parasite or virus in culture; format: cell-based, Toxoplasma gondii
[4] = Plasmodium falciparum, 3D7, P. falciparum, 72 h, screen at 2 μg/mL, replicate 1, read-out: Pf_72h_%Growth_Rep1
[5] = Plasmodium falciparum, 3D7, P. falciparum, 72 h, screen at 2 μg/mL, replicate 2, read-out: Pf_72h_%Growth_Rep2
[6] = Plasmodium falciparum, 3D7, P. falciparum, 120 h, screen at 2 μg/mL, replicate 1, read-out: Pf_120h_%Growth_Rep1
[7] = Plasmodium falciparum, 3D7, P. falciparum, 120 h, screen at 2 μg/mL, replicate 2, read-out: Pf_120h_%Growth_Rep2
[8] = Toxoplasma gondii, 72 h, T. gondii, 72 h, screen at 2 μg/mL, replicate 1; read-out: Tg_72h_%Growth_Rep1
[9] = Toxoplasma gondii, 72 h, T. gondii, 72 h, screen at 2 μg/mL, replicate 2; read-out: Tg_72h_%Growth_Rep2
[10] = P. falciparum 3D7, 72 h, library screen at 2 μg/mL, % growth, replicate 1
[11] = P. falciparum 3D7, 72 h, library screen at 2 μg/mL, % growth, replicate 2
[12] = P. falciparum 3D7, 120 h, library screen at 2 μg/mL, % growth, replicate 1
[13] = P. falciparum 3D7, 120 h, library screen at 2 μg/mL, % growth, replicate 2
[14] = T. gondii RH, 72 h, library screen at 2 μg/mL, % growth, replicate 1
[15] = T. gondii RH, 72 h, library screen at 2 μg/mL, % growth, replicate 2
[16] = P. falciparum, 72 h, screen at 2 μg/mL, replicate 1
[17] = P. falciparum, 72 h, screen at 2 μg/mL, replicate 2
[18] = P. falciparum, 120 h, screen at 2 μg/mL, replicate 1
[19] = P. falciparum, 120 h, screen at 2 μg/mL, replicate 2
[20] = T. gondii, 72 h, screen at 2 μg/mL, replicate 1
[21] = T. gondii, 72 h, screen at 2 μg/mL, replicate 2
[22] = library screen at 2 μg/mL, 72 h, % growth, replicate 1
[23] = library screen at 2 μg/mL, 72 h, % growth, replicate 2

C=C(CC[C@]12O[C@H](C(=O)O)[C@@](O)(C(=O)O)[C@](C(=O)O)(O1)[C@H](OC(=O)/C=C/[C@@H](C)C[C@@H](C)CC)[C@H]2O)[C@@H](OC(C)=O)[C@H](C)Cc1ccccc1 [Zaragozic acid A]
activity at 2 µg/mL [1, 4]: 92.7%
activity at 2 µg/mL [1, 5]: 117%
activity at 2 µg/mL [2, 6]: 104%
activity at 2 µg/mL [2, 7]: 107%
percent parasite growth at 2 µg/mL [3, 8]: 122%
percent parasite growth at 2 µg/mL [3, 9]: 82.3%

O=C(N[C@H](CO)[C@H](O)c1ccc([N+](=O)[O-])cc1)C(Cl)Cl [Chloramphenicol]
activity at 2 µg/mL ([1]; Plasmodium falciparum, 3D7, 72 h, P. falciparum, 72 h, screen at 2 μg/mL, replicate 1, read-out: Pf_72h_%Growth_Rep1): 85.8%
activity at 2 µg/mL ([1]; Plasmodium falciparum, 3D7, 72 h, P. falciparum, 72 h, screen at 2 μg/mL, replicate 2, read-out: Pf_72h_%Growth_Rep2): 84.9%
activity at 2 µg/mL ([2]; Plasmodium falciparum, 3D7, 120 h, P. falciparum, 120 h, screen at 2 μg/mL, replicate 1, read-out: Pf_120h_%Growth_Rep1): 117%
activity at 2 µg/mL ([2]; Plasmodium falciparum, 3D7, 120 h, P. falciparum, 120 h, screen at 2 μg/mL, replicate 2, read-out: Pf_120h_%Growth_Rep2): 64.9%
percent parasite growth at 2 µg/mL [3, 8]: 86.7%
percent parasite growth at 2 µg/mL [3, 9]: 85.3%

CCCCCC(O)C1C(=O)OC(C)C(O)C=CC=CC=CC=CC=C(C)C(O)C(O)C(O)CC(O)CC(O)CC(O)CC(O)CC1O (stereo not shown) [BIA-L1613]
Pf_72h_%Growth_Rep1 [1, 10]: 78.48%
Pf_72h_%Growth_Rep2 [1, 11]: 58.30%
Pf_120h_%Growth_Rep1 [2, 12]: 95.83%
Pf_120h_%Growth_Rep2 [2, 13]: 112.04%
Tg_72h_%Growth_Rep1 [3, 14]: 108.01%
Tg_72h_%Growth_Rep2 [3, 15]: 85.53%

C=C[C@@](C)(CCC=C(C)C)c1ccc2c3c(c[nH]c13)C[C@@H](CO)NC(=O)[C@H](C(C)C)N2C [Teleocidin A1]
Pf_72h_%Growth_Rep1 [1, 16]: 6.74%
Pf_72h_%Growth_Rep2 [1, 17]: -5.43%
Pf_120h_%Growth_Rep1 [2, 18]: 8.14%
Pf_120h_%Growth_Rep2 [2, 19]: 11.61%
Tg_72h_%Growth_Rep1 [3, 20]: 75.89%
Tg_72h_%Growth_Rep2 [3, 21]: 83.10%

CN(C)[C@H]1C(O)=C(C(N)=O)C(=O)[C@@]2(O)C(O)=C3C(=O)c4c(O)cccc4[C@@](C)(O)[C@H]3C[C@@H]12 [Epitetracycline hydrochloride]
activity at 2 µg/mL ([1]; Plasmodium falciparum, 3D7; P. falciparum, 2 μg/mL, 72 h; read-out: 1) Growth (%) at 72 h): 57.7%
activity at 2 µg/mL ([1]; Plasmodium falciparum, 3D7, library screen at 2 μg/mL, 72 h, % growth, replicate 1, read-out: Pf_72h_%Growth_Rep1): 65.2%
activity at 2 µg/mL ([1]; Plasmodium falciparum, 3D7, library screen at 2 μg/mL, 72 h, % growth, replicate 2, read-out: Pf_72h_%Growth_Rep2): 50.1%
3) Fold change (72 h/120 h) [2]: 3.9
activity at 2 µg/mL ([2]; Plasmodium falciparum, 3D7; P. falciparum, 2 μg/mL, 120 h; read-out: 2) Growth (%) at 120 h): 14.7%
activity at 2 µg/mL ([2]; Plasmodium falciparum, 3D7, library screen at 2 μg/mL, 120 h, % growth, replicate 1, read-out: Pf_120h_%Growth_Rep1): 18%
activity at 2 µg/mL ([2]; Plasmodium falciparum, 3D7, library screen at 2 μg/mL, 120 h, % growth, replicate 2, read-out: Pf_120h_%Growth_Rep2): 11.5%
percent parasite growth at 2 µg/mL ([3]; Toxoplasma gondii, 72 h, read-out: Tg_72h_%Growth_Rep1): 125%
percent parasite growth at 2 µg/mL ([3]; Toxoplasma gondii, 72 h, read-out: Tg_72h_%Growth_Rep2): 100%

CC1(C)C=Cc2c(ccc3ccc(=O)oc23)O1 [Seselin]
Pf_72h_%Growth_Rep1 ([1]; P. falciparum, 72 h, parasite screen 2 μg/mL, % growth, replicate 1): 72.86%
Pf_72h_%Growth_Rep2 ([1]; P. falciparum, 72 h, parasite screen 2 μg/mL, % growth, replicate 2): 126.42%
Pf_120h_%Growth_Rep1 ([2]; P. falciparum, 120 h, parasite screen 2 μg/mL, % growth, replicate 1): 59.04%
Pf_120h_%Growth_Rep2 ([2]; P. falciparum, 120 h, parasite screen 2 μg/mL, % growth, replicate 2): 133.69%
Tg_72h_%Growth_Rep1 ([3]; T. gondii, 72 h, parasite screen 2 μg/mL, % growth, replicate 1): 115.94%
Tg_72h_%Growth_Rep2 ([3]; T. gondii, 72 h, parasite screen 2 μg/mL, % growth, replicate 2): 77.58%

Cc1cc(O)c(C)c(O)c1C(=O)Oc1c(C)c(C)c(C(=O)Oc2c(C)c(C)c(C(=O)O)c(O)c2C)c(O)c1C [Thielavin A]
IC50 ([1]; 3D7, 72 h treatment, mean ± S.D., n ≥ 3, read-out: IC50 (μM), P. falciparum): > 1 µM
Pf_72h_%Growth_Rep1 [1, 16]: 46.40%
Pf_72h_%Growth_Rep2 [1, 17]: 70.42%
Pf_120h_%Growth_Rep1 [2, 18]: 119.92%
Pf_120h_%Growth_Rep2 [2, 19]: 51.57%
Tg_72h_%Growth_Rep1 [3, 20]: 89.38%
Tg_72h_%Growth_Rep2 [3, 21]: 91.04%

COc1ccc2c3c4n(c2c1)[C@H](C=C(C)C)OOC(C)(C)C[C@@H]4N1C(=O)[C@@H]2CCCN2C(=O)[C@]1(O)[C@H]3O [Verruculogen]
activity at 2 µg/mL [1, 4]: 58.1%
activity at 2 µg/mL [1, 5]: 88.5%
activity at 2 µg/mL [2, 6]: 144%
activity at 2 µg/mL [2, 7]: 80.6%
percent parasite growth at 2 µg/mL ([3]; Toxoplasma gondii; T. gondii, 72 h, screen at 2 μg/mL, replicate 1; read-out: Tg_72h_%Growth_Rep1): 92.4%
percent parasite growth at 2 µg/mL ([3]; Toxoplasma gondii; T. gondii, 72 h, screen at 2 μg/mL, replicate 2; read-out: Tg_72h_%Growth_Rep2): 102%

C/C=C/C/C=C/CCC(=O)[C@H]1O[C@H]1C(N)=O [Cerulenin]
activity at 2 µg/mL [1, 4]: 86.4%
activity at 2 µg/mL [1, 5]: 80.4%
activity at 2 µg/mL [2, 6]: 137%
activity at 2 µg/mL [2, 7]: 85.1%
percent parasite growth at 2 µg/mL [3, 8]: 79%
percent parasite growth at 2 µg/mL [3, 9]: 81.8%

CC=C(C)C(O)C(C)C=C(C)C=CCC(C)=CCc1nc(OC)c(OC)c(O)c1C (stereo not shown) [BIA-P1069]
Pf_72h_%Growth_Rep1 ([1]; P. falciparum 3D7, 72 h, parasite screen at 2 μg/mL, % growth, replicate 1): 80.36%
Pf_72h_%Growth_Rep2 ([1]; P. falciparum 3D7, 72 h, parasite screen at 2 μg/mL, % growth, replicate 2): 61.30%
Pf_120h_%Growth_Rep1 ([2]; P. falciparum 3D7, 120 h, parasite screen at 2 μg/mL, % growth, replicate 1): 92.39%
Pf_120h_%Growth_Rep2 ([2]; P. falciparum 3D7, 120 h, parasite screen at 2 μg/mL, % growth, replicate 2): 102.66%
Tg_72h_%Growth_Rep1 ([3]; T. gondii, 72 h, parasite screen at 2 μg/mL, % growth, replicate 1): 120.41%
Tg_72h_%Growth_Rep2 ([3]; T. gondii, 72 h, parasite screen at 2 μg/mL, % growth, replicate 2): 75.10%

Cc1cc(O)cc(=O)o1 [BIA-H1736]
Pf_72h_%Growth_Rep1 [1, 10]: 86.06%
Pf_72h_%Growth_Rep2 [1, 11]: 85.31%
Pf_120h_%Growth_Rep1 [2, 12]: 102.52%
Pf_120h_%Growth_Rep2 [2, 13]: 94.50%
Tg_72h_%Growth_Rep1 [3, 14]: 113.92%
Tg_72h_%Growth_Rep2 [3, 15]: 93.67%

C[C@H]1CC[C@H]2[C@@H](C=C[C@@H]3[C@H]4[C@@H](C)O[C@]5(O)[C@@H](CO)N(C)C(=O)[C@]45C(=O)[C@@]32C)C1 [Fusarisetin A]
Pf_72h_%Growth_Rep1 [1, 22]: 74.99%
Pf_72h_%Growth_Rep2 [1, 23]: 87.91%
Pf_120h_%Growth_Rep1 ([2]; library screen at 2 μg/mL, 120 h, % growth, replicate 1): 74.69%
Pf_120h_%Growth_Rep2 ([2]; library screen at 2 μg/mL, 120 h, % growth, replicate 2): 108.30%
Tg_72h_%Growth_Rep1 [3, 22]: 159.47%
Tg_72h_%Growth_Rep2 [3, 23]: 97.52%

C=C1C(=O)C[C@@H]2[C@H]3CC[C@@H](C(=O)O)[C@@]12CC3(C)C [Terrecyclic Acid]
Pf_72h_%Growth_Rep1 [1, 16]: 17.94%
Pf_72h_%Growth_Rep2 [1, 17]: 13.49%
Pf_120h_%Growth_Rep1 [2, 18]: 35.11%
Pf_120h_%Growth_Rep2 [2, 19]: 10.18%
Tg_72h_%Growth_Rep1 [3, 20]: 40.31%
Tg_72h_%Growth_Rep2 [3, 21]: 50.53%

CCC(C)(C)C(=O)O[C@H]1C[C@@H](C)C=C2C=C[C@H](C)[C@H](CC[C@@H]3C[C@@H](O)CC(=O)O3)[C@H]21 [Simvastatin]
activity at 2 µg/mL ([1]; Plasmodium falciparum, 3D7, 72 h, P. falciparum, 72 h, parasite screen 2 μg/mL, % growth, replicate 1, read-out: Pf_72h_%Growth_Rep1): 83.1%
activity at 2 µg/mL ([1]; Plasmodium falciparum, 3D7, 72 h, P. falciparum, 72 h, parasite screen 2 μg/mL, % growth, replicate 2, read-out: Pf_72h_%Growth_Rep2): 118%
activity at 2 µg/mL ([2]; Plasmodium falciparum, 3D7, 120 h, P. falciparum, 120 h, parasite screen 2 μg/mL, % growth, replicate 1, read-out: Pf_120h_%Growth_Rep1): 83.8%
activity at 2 µg/mL ([2]; Plasmodium falciparum, 3D7, 120 h, P. falciparum, 120 h, parasite screen 2 μg/mL, % growth, replicate 2, read-out: Pf_120h_%Growth_Rep2): 70.2%
percent parasite growth at 2 µg/mL ([3]; Toxoplasma gondii, 72 h, T. gondii, 72 h, parasite screen 2 μg/mL, % growth, replicate 1; read-out: Tg_72h_%Growth_Rep1): 93.5%
percent parasite growth at 2 µg/mL ([3]; Toxoplasma gondii, 72 h, T. gondii, 72 h, parasite screen 2 μg/mL, % growth, replicate 2; read-out: Tg_72h_%Growth_Rep2): 71.4%
